Assays:
[1] = Toxicity and body weight of treated mice; format: in vivo; settings: one dose/week for 3 weeks
Procedure: (§1) Nude tumor bearing mice were administered by intravenous injection a single dose of 6, 8, 10, or 12 mg/kg of free DOX (one dose/week for 3 weeks). The mice were sacrificed two weeks after the last administration and the tumors were harvested for analysis. Tumor size was measured and compared to the size of tumors harvested from mice administered a saline control.
(§2) Also, in this experiment, instead of being sacrificed two weeks after the last administration, the tumor volumes of the mice were measured one week after the last administration and then measured again four weeks later.

[2] = tested on: tumors of nude tumor bearing mice; assay: Tumor growth in nude tumor bearing mice after intravenous dosing; format: in vivo; settings: one dose/week for 3 weeks
Procedure: as §1
The above experiment was repeated with an 8 mg/kg dose of free DOX and two additional test groups of mice: one group of mice were administered a dendrimer conjugate comprising a G5 dendrimer conjugated to DOX (G5-OXY-DOX) comprising an azo linkage comprising the structure of
as §2

[3] = tested on: Hep3B cells; assay: Clonogenic survival of Hep3B cells; format: cell-based, human
Procedure: (§3) We compared the anticancer activity of G5-L(x)-DOX conjugates to free DOX as a function of concentration by measuring their effect on clonogenic survival of HepG2 and Hep3B hepatic cancer cells. Briefly, HepG2 and Hep3B cells were seeded at a density of 2.5×10^5 cells/T-25 flask and allowed to adhere overnight before incubating with different concentrations (1 nM-100 μM equivalent concentration of DOX) of free DOX or G5-L(x)-DOX conjugates dissolved in OPTI-MEM solution. […] After 72 hours HepG2 and Hep3B cells were washed with cold PBS, trypsinized using a 0.25% trypsin-EDTA solution and centrifuged at 1,000 rpm for 5 minutes. Cell pellets were suspended in fresh culture medium, counted, and plated in 6-well plates at a seeding density of 500-10,000 cells/well and allowed to grow undisturbed for 14 days under normal culture conditions. The formed colonies were gently washed with cold PBS, treated with 1 mL methanol/glacial acetic acid (75/25) and 0.04% w/v trypan blue for 5 minutes and counted. Plating efficiency (PE) for each cell line was calculated by dividing the number of colonies by the cell seeding density for cells incubated with fresh culture medium (negative control). […] All samples were prepared in triplicate for each seeding density and treatment condition, and results expressed as the average % SF±SEM. […]

[4] = tested on: rat cardiomyocytes; assay: LDH leakage cell viability assay in rat cardiomyocytes; format: cell-based; settings: 100 μM eq. DOX, 8 hour incubation, versus blank medium
Procedure: Toxicity of G5-L4-DOX conjugates and free DOX in rat cardiomyocytes was evaluated using the lactate dehydrogenase (LDH) leakage cell viability assay. Briefly, each well was counted for total number of cardiomyocytes before an 8 hour treatment with free DOX or G5-L4-DOX (100 μM eq. DOX) conjugates dissolved in 0.5 mL HBSS. The amount of LDH released to the medium was assayed by mixing […] of the treatment solution in a 96-well plate with the enzyme substrate (1:1) included in the assay kit following the manufacturer's guidelines. […] Amount of LDH leakage for treatment solution and controls were normalized to the number of seeded cells, and all values compared to the positive control (set as 100% LDH leakage reference) to obtain the percentage of LDH leakage as a function of treatment.

[5] = tested on: HepG2 cells; assay: Clonogenic survival of HepG2 cells; format: cell-based, human; settings: 72 hour incubation, equivalent DOX concentration
Procedure: as §3

## COc1cccc2c1C(=O)c1c(O)c3c(c(O)c1C2=O)C[C@@](O)(C(=O)CO)C[C@@H]3O[C@H]1C[C@H](N)[C@H](O)[C@H](C)O1.Cl (relative stereo) [Free DOX, 5,12-Naphthacenedione, 10-[(3-amino-2,3,6-trideoxy-α-L-lyxo-hexopyranosyl)oxy]-7,8,9,10-tetrahydro-6,8,11-trihydroxy-8-(hydroxylacetyl)-1-methoxy-, hydrochloride (8S-cis)]
[1]; 10 mg/kg i.v.
  toxicity to mice: slight increase in toxicity
[1]; 12 mg/kg i.v.
  toxicity to mice: too toxic to mice
[2]; 6 mg/kg i.v.
  reduction in tumor size versus saline control: did not cause any substantial reduction in tumor size
[2]; 8 and 10 mg/kg i.v.
  tumor growth versus control mice: inhibited tumor growth
[3]; 72 hours
  fold reduction in IC50 in Hep3B compared to HepG2 cells: 5 fold
[3]; clonogenic survival, 72 hour incubation, equivalent DOX concentration
  IC50: 2 nM
[4]
  LDH leakage / cardiac toxicity: nearly double the % of LDH leakage
[4]; listed as free DOX
  LDH leakage / cardiac toxicity: toxic
[5]
  IC50: 10 nM
